Tests used:
A549 [1] = test: Anticancer activity against human A549 cells; type: functional, cell-based
HeLa [2] = test: Anticancer activity against human HeLa cells; type: functional, cell-based
HepG2 = test: Anticancer activity against human HepG2 cells; type: functional, cell-based
[3] = Selectivity ratio of IC50 for human MDA-MB-231 cells to IC50 for human MCF7 cells
MCF7 = test: Anticancer activity against human MCF7 cells assessed as cell growth inhibition incubated for 24 hrs by MTT assay; type: functional, cell-based; settings: MCF7, 24 h
[4] = Selectivity ratio of IC50 for human MCF7 cells to IC50 for human MDA-MB-231 cells; type: toxicity
[5] = Cytotoxicity against human MCF-10A cells assessed as cell growth inhibition incubated for 24 hrs by MTT assay; type: toxicity, cell-based
MDA-MB-231 = test: Anticancer activity against human MDA-MB-231 cells assessed as cell growth inhibition incubated for 24 hrs by MTT assay; type: functional, cell-based; settings: MDA-MB-231, 24 h
A549 [6] = test: Potency index, ratio of test compound IC50 to Resveratrol IC50 for antiproliferative activity against human A549 cells; type: functional
A549 [7] = test: Anticancer activity against human A549 cells assessed as cell growth inhibition measured after 72 hrs by MTT assay; type: functional, cell-based; settings: Homo sapiens, A549, 72 h
[8] = Anticancer activity against Lung adenocarcinoma cell line assessed as cell growth inhibition measured after 72 hrs by MTT assay; type: functional, cell-based; settings: Lung adenocarcinoma cell line, 72 h
HeLa [9] = test: Anticancer activity against human HeLa cells assessed as cell growth inhibition measured after 72 hrs by MTT assay; type: functional, cell-based; settings: Homo sapiens, HeLa, 72 h; read-out: IC50

Molecule `COc1ccc(/C(=C/c2cc(C(F)(F)F)ccc2Cl)C(=O)O)cc1` has an IC50 (A549 [1]) of 3.77 µM, an IC50 (HeLa [2]) of 4.79 µM and an IC50 (HepG2) of 7.49 µM.
With `Oc1ccc(-c2ccc3cc(O)ccc3c2)c(O)c1` the “Ratio IC50” value [3] was 1.9, the IC50 (MCF7) was 26.3 µM and the “Ratio IC50” value [4] was 3.3. The IC50 at 24 h [5] was over 100 µM and the IC50 (MDA-MB-231) was 48.2 µM.
In the case of `O=S(=O)(Oc1cc(O)cc(/C=C/c2ccc(O)cc2)c1)c1ccccc1`, the “Ratio IC50” value (A549 [6]) is reported as 15, the IC50 (A549 [7]) is reported as 4.38 µM and the IC50 [8] is reported as 10.2 µM. The IC50 (HeLa [9]) was 8.16 µM.
